Experimental data reported in US20230147364A1, “PROPHYLACTIC OR THERAPEUTIC AGENT FOR RNA VIRUS-RELATED DISEASES” (priority 2020, published 2023).
Structures can show the parent of a compound that is named as a salt.

What was measured:
Sendai virus (SeV) [1] = experiment: microbe, parasite or virus in culture; type: cell-based; conditions: for IC50: Respirovirus muris, read-out: IC50, infection rate of SeV
SARS-CoV-2 = experiment: microbe, parasite or virus in culture; type: cell-based; conditions: for IC50: Severe acute respiratory syndrome coronavirus 2, Vero C1008, read-out: IC50, infection rate of SARS-CoV-2
Ebola trVLP [2] = system: Ebola trVLP
VSV-G = type: cell-based, vesicular stomatitis virus
Sendai virus (SeV) [3] = type: cell-based
[4] = system: pseudo-typed VSV having a SARS-CoV spike protein (SARS-CoV-S); experiment: microbe, parasite or virus in culture; type: cell-based; conditions: Vesicular stomatitis virus, Vero C1008, 20 h, read-out: IC50, infection with pseudo-typed VSV having SARS-CoV spike protein
[5] = system: VSVΔG-SARS2-S (pseudo-type VSV with SARS-CoV-2 spike protein); experiment: microbe, parasite or virus in culture; type: cell-based; conditions: Vesicular stomatitis virus, Vero C1008, 20 h, read-out: IC50, VSVΔG-SARS2-S infection
Ebola trVLP [6] = experiment: microbe, parasite or virus in culture; conditions: Zaire ebolavirus, Huh-7, read-out: IC50, Ebola trVLP infection
Wherever Score (number of EGFP-positive cells, value subjected to correction between batches) is given: test concentration or dose not given here.

CC(C)(C)[C@]1(O)CCN2Cc3cccc4c3[C@H](c3ccccc3CC4)[C@@H]2C1.Cl [(+)-Butaclamol hydrochloride]
Score (number of EGFP-positive cells, value subjected to correction between batches) (Sendai virus (SeV) [1]): 226.08

CN(C)CCC=C1c2ccccc2CCc2ccccc21 [Amitriptyline hydrochloride]
Score (number of EGFP-positive cells, value subjected to correction between batches) (Sendai virus (SeV) [1]): 192.61

O=C1CCc2ccc(OCCCCN3CCN(c4cccc(Cl)c4Cl)CC3)cc2N1 [Aripiprazole]
Score (number of EGFP-positive cells, value subjected to correction between batches) (Sendai virus (SeV) [1]): 86.95

Cc1ccc(-c2cc(C(F)(F)F)nn2-c2ccc(S(N)(=O)=O)cc2)cc1 [Celecoxib]
Score (number of EGFP-positive cells, value subjected to correction between batches) (Sendai virus (SeV) [1]): 208.69

O=C(O)COCCN1CCN(C(c2ccccc2)c2ccc(Cl)cc2)CC1 (stereo not drawn) [Cetirizine dihydrochloride]
Score (number of EGFP-positive cells, value subjected to correction between batches) (Sendai virus (SeV) [1]): 202.89

CN(C)CCCN1c2ccccc2Sc2ccc(Cl)cc21 [Chlorpromazine hydrochloride]
Score (number of EGFP-positive cells, value subjected to correction between batches) (Sendai virus (SeV) [1]): 75.36

CCN(CC)CCOc1ccc(/C(=C(/Cl)c2ccccc2)c2ccccc2)cc1 [Clomifene, clomifene]
effect on virus: SARS-CoV-2 (SARS-CoV-2): +
antiviral activity against Ebola trVLP infection (Ebola trVLP [2]): inhibit the Ebola trVLP infection
effect on virus: Ebola virus (Ebola trVLP [2]): +
infection-inhibiting effect on VSV-G (VSV-G): no infection-inhibiting effect was observed

CC1=NS(=O)(=O)c2cc(Cl)ccc2N1 [Diazoxide]
Score (number of EGFP-positive cells, value subjected to correction between batches) (Sendai virus (SeV) [1]): 173.91

CC(CCc1ccc(O)cc1)NCCc1ccc(O)c(O)c1 (stereo not drawn) [Dobutamine hydrochloride]
Score (number of EGFP-positive cells, value subjected to correction between batches) (Sendai virus (SeV) [1]): 69.56

O=c1[nH]c2ccccc2n1CCCN1CCC(n2c(=O)[nH]c3cc(Cl)ccc32)CC1 [Domperidone]
Score (number of EGFP-positive cells, value subjected to correction between batches) (Sendai virus (SeV) [1]): 139.13

CCOC(=O)C1=C(C)NC(C)=C(C(=O)OC)C1c1cccc(Cl)c1Cl (stereo not drawn) [Felodipine]
Score (number of EGFP-positive cells, value subjected to correction between batches) (Sendai virus (SeV) [1]): 133.33

COc1ccc(Cl)cc1C(=O)NCCc1ccc(S(=O)(=O)NC(=O)NC2CCCCC2)cc1 [Glibenclamide]
Score (number of EGFP-positive cells, value subjected to correction between batches) (Sendai virus (SeV) [1]): 202.89

CNCCCC12CCC(c3ccccc31)c1ccccc12 [Maprotiline hydrochloride]
Score (number of EGFP-positive cells, value subjected to correction between batches) (Sendai virus (SeV) [1]): 191.30

Nc1cc(N2CCCCC2)nc(N)[n+]1[O-] [Minoxidil]
Score (number of EGFP-positive cells, value subjected to correction between batches) (Sendai virus (SeV) [1]): 226.08

COc1ccccc1N1CCN(CC(O)COc2cccc3ccccc23)CC1 (stereo not drawn) [Naftopidil]
Score (number of EGFP-positive cells, value subjected to correction between batches) (Sendai virus (SeV) [1]): 214.49

O=C(NCCO[N+](=O)[O-])c1cccnc1 [Nicorandil]
Score (number of EGFP-positive cells, value subjected to correction between batches) (Sendai virus (SeV) [1]): 185.50

CC(COc1ccccc1)N(CCCl)Cc1ccccc1 (stereo not drawn) [Phenoxybenzamine hydrochloride]
Score (number of EGFP-positive cells, value subjected to correction between batches) (Sendai virus (SeV) [1]): 162.31

CCc1ccc(CCOc2ccc(CC3SC(=O)NC3=O)cc2)nc1 (stereo not drawn) [Pioglitazone, pioglitazone]
antiviral activity against SARS-CoV-2 infection (SARS-CoV-2): partially suppressed virus infection at a high concentration
effect on virus: SARS-CoV-2 (SARS-CoV-2): +
antiviral activity against Ebola trVLP infection (Ebola trVLP [2]): did not show significant antiviral activity
effect on virus: Ebola virus (Ebola trVLP [2]): −
amount of the EGFP mRNA (Sendai virus (SeV) [3]): significantly and markedly reduced
Score (number of EGFP-positive cells, value subjected to correction between batches) (Sendai virus (SeV) [1]): 173.91
effect on virus: Sendai virus (Sendai virus (SeV) [1]): +
IC50 (Sendai virus (SeV) [1]): 4.9 µM

O=C(Nc1cccc2c(=O)cc(-c3nnn[nH]3)oc12)c1ccc(OCCCCc2ccccc2)cc1 [Pranlukast, pranlukast]
antiviral activity against SARS-CoV-2 infection (SARS-CoV-2): tended to reduce the infection rate of SARS-CoV-2, which was not significant
effect on virus: SARS-CoV-2 (SARS-CoV-2): N.S.
antiviral activity against Ebola trVLP infection (Ebola trVLP [2]): did not show significant antiviral activity
effect on virus: Ebola virus (Ebola trVLP [2]): −
amount of the EGFP mRNA (Sendai virus (SeV) [3]): significantly and markedly reduced
Score (number of EGFP-positive cells, value subjected to correction between batches) (Sendai virus (SeV) [1]): 162.31
effect on virus: Sendai virus (Sendai virus (SeV) [1]): +
IC50 (Sendai virus (SeV) [1]): 5 µM

CC(CN1c2ccccc2Sc2ccccc21)N(C)C (stereo not drawn) [Promethazine hydrochloride]
Score (number of EGFP-positive cells, value subjected to correction between batches) (Sendai virus (SeV) [1]): 231.88

CCCCC[C@H](O)/C=C/[C@H]1[C@H](O)CC(=O)[C@@H]1C/C=C\CCCC(=O)O [Prostaglandin E2]
Score (number of EGFP-positive cells, value subjected to correction between batches) (Sendai virus (SeV) [1]): 208.69

COc1ccc(CN(CCN(C)C)c2ccccn2)cc1 [Pyrilamine maleate]
Score (number of EGFP-positive cells, value subjected to correction between batches) (Sendai virus (SeV) [1]): 185.50

OCCOCCN1CCN(C2=Nc3ccccc3Sc3ccccc32)CC1 [Quetiapine fumarate]
Score (number of EGFP-positive cells, value subjected to correction between batches) (Sendai virus (SeV) [1]): 133.33

O=C(c1ccc(OCCN2CCCCC2)cc1)c1c(-c2ccc(O)cc2)sc2cc(O)ccc12 [Raloxifene hydrochloride]
Score (number of EGFP-positive cells, value subjected to correction between batches) (Sendai virus (SeV) [1]): 57.97

O=C(c1ccc(OCCN2CCCCC2)cc1)c1c(-c2ccc(O)cc2)sc2cc(O)ccc12 [Raloxifene, raloxifene]
effect on virus: SARS-CoV-2 (SARS-CoV-2): +
IC50 (SARS-CoV-2): 7.1 µM
IC50 [4]: 4.1 µM
effect on virus: Ebola virus (Ebola trVLP [2]): +
infection-inhibiting activity versus cytotoxicity (cell viability) (Ebola trVLP [2]): significant dissociation between the infection-inhibiting activity and the cytotoxicity
infection-inhibiting effect on VSV-G (VSV-G): no infection-inhibiting effect was observed
amount of the EGFP mRNA (Sendai virus (SeV) [3]): significantly and markedly reduced
effect on virus: Sendai virus (Sendai virus (SeV) [1]): +
IC50 (Sendai virus (SeV) [1]): 4.3 µM
IC50 [5]: 3.9 µM
IC50 (Ebola trVLP [6]): 0.88 µM

CO[C@H]1/C=C/O[C@@]2(C)Oc3c(C)c(O)c4c(O)c(c(/C=N/N5CCN(C)CC5)c(O)c4c3C2=O)NC(=O)/C(C)=C\C=C\[C@H](C)[C@H](O)[C@@H](C)[C@@H](O)[C@@H](C)[C@H](OC(C)=O)[C@@H]1C [Rifampin, rifampin]
antiviral activity against SARS-CoV-2 infection (SARS-CoV-2): tended to reduce the infection rate of SARS-CoV-2, which was not significant
effect on virus: SARS-CoV-2 (SARS-CoV-2): N.S.
antiviral activity against Ebola trVLP infection (Ebola trVLP [2]): did not show significant antiviral activity
effect on virus: Ebola virus (Ebola trVLP [2]): −
amount of the EGFP mRNA (Sendai virus (SeV) [3]): significantly and markedly reduced
Score (number of EGFP-positive cells, value subjected to correction between batches) (Sendai virus (SeV) [1]): 75.36
effect on virus: Sendai virus (Sendai virus (SeV) [1]): +
IC50 (Sendai virus (SeV) [1]): 3.9 µM

CS(=O)(=O)c1ccc(C2=C(c3ccccc3)C(=O)OC2)cc1 [Rofecoxib]
Score (number of EGFP-positive cells, value subjected to correction between batches) (Sendai virus (SeV) [1]): 202.89

CC1=C(CC(=O)O)c2cc(F)ccc2/C1=C\c1ccc([S+](C)[O-])cc1 (stereo not drawn) [Sulindac]
Score (number of EGFP-positive cells, value subjected to correction between batches) (Sendai virus (SeV) [1]): 127.53

CC/C(=C(\c1ccccc1)c1ccc(OCCN(C)C)cc1)c1ccccc1 [Tamoxifen, tamoxifen]
effect on virus: SARS-CoV-2 (SARS-CoV-2): +
antiviral activity against Ebola trVLP infection (Ebola trVLP [2]): inhibit the Ebola trVLP infection
effect on virus: Ebola virus (Ebola trVLP [2]): +

CSc1ccc2c(c1)N(CCC1CCCCN1C)c1ccccc1S2 (stereo not drawn) [Thioridazine hydrochloride]
Score (number of EGFP-positive cells, value subjected to correction between batches) (Sendai virus (SeV) [1]): 217.78

CN(C)CCOc1ccc(/C(=C(/CCCl)c2ccccc2)c2ccccc2)cc1 [Toremifene, toremifene]
effect on virus: SARS-CoV-2 (SARS-CoV-2): +
IC50 (SARS-CoV-2): 10 µM
IC50 [4]: 7.3 µM
antiviral activity against Ebola trVLP infection (Ebola trVLP [2]): inhibit the Ebola trVLP infection
effect on virus: Ebola virus (Ebola trVLP [2]): +
infection-inhibiting effect on VSV-G (VSV-G): no infection-inhibiting effect was observed
IC50 [5]: 5.3 µM

COc1cc(C(=O)NS(=O)(=O)c2ccccc2C)ccc1Cc1cn(C)c2ccc(NC(=O)OC3CCCC3)cc12 [Zafirlukast]
Score (number of EGFP-positive cells, value subjected to correction between batches) (Sendai virus (SeV) [1]): 156.52

CC(c1cc2ccccc2s1)N(O)C(N)=O (stereo not drawn) [Zileuton, zileuton]
antiviral activity against SARS-CoV-2 infection (SARS-CoV-2): did not exhibit significant antiviral activity
effect on virus: SARS-CoV-2 (SARS-CoV-2): −
antiviral activity against Ebola trVLP infection (Ebola trVLP [2]): did not show significant antiviral activity
effect on virus: Ebola virus (Ebola trVLP [2]): −
amount of the EGFP mRNA (Sendai virus (SeV) [3]): significantly and markedly reduced
Score (number of EGFP-positive cells, value subjected to correction between batches) (Sendai virus (SeV) [1]): 214.49
effect on virus: Sendai virus (Sendai virus (SeV) [1]): +
IC50 (Sendai virus (SeV) [1]): 4.5 µM

CCC(CC)COC(=O)[C@H](C)N[P@](=O)(OC[C@H]1O[C@@](C#N)(c2ccc3c(N)ncnn23)[C@H](O)[C@@H]1O)Oc1ccccc1 [remdesivir]
IC50 (SARS-CoV-2): 0.89 µM
amount of the EGFP mRNA (Sendai virus (SeV) [3]): substantially not detected
IC50 (Sendai virus (SeV) [1]): 0.077 µM
IC50 (Ebola trVLP [6]): 0.12 µM

Ifenprodil tartrate
Score (number of EGFP-positive cells, value subjected to correction between batches) (Sendai virus (SeV) [1]): 214.49
